Measurements published in ChEMBL document CHEMBL1201862, “PubChem BioAssay data set” (2004).
Calls of active or inactive are those of the source. Where a SMILES comes first, the peptide text is derived from it. [ ]: non-standard residue; d: D form. The star is where a group is joined. Ac5c = NC1(C(=O)O)CCCC1; Cbz = O=C(OCc1ccccc1)*

Experiments:
[1] = Luminescence Cell-Based Dose Retest to Confirm Inhibitors of Cancer Stem Cells. [Related pubchem assays (depositor defined):AID2717, AID2721]; type: functional; settings: Homo sapiens
[2] = target: FAD-linked sulfhydryl oxidase ALR (Homo sapiens, UniProt P55789); assay: inhibitors of human ALR sulfhydryl oxidase, dose response, biochemical, H2O2 detection, luminescence, cherry-pick (AID 493248)
Chain of FAD-linked sulfhydryl oxidase ALR (P55789 whole entry): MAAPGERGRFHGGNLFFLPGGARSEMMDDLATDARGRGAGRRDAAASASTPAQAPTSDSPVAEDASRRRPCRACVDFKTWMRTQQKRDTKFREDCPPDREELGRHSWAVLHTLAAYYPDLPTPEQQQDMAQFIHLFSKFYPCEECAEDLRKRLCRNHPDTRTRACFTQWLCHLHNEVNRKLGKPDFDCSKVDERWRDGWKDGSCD

Vero = assay: cells; type: functional; settings: Chlorocebus sabaeus
Large T antigen = Large T antigen (Simian virus 40, UniProt P03070); type: functional, Betapolyomavirus macacae;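 further: Confirmatory-stage PubChem screen for compounds that inhibit SV40 T antigen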
Chain of Large T antigen (P03070 whole entry): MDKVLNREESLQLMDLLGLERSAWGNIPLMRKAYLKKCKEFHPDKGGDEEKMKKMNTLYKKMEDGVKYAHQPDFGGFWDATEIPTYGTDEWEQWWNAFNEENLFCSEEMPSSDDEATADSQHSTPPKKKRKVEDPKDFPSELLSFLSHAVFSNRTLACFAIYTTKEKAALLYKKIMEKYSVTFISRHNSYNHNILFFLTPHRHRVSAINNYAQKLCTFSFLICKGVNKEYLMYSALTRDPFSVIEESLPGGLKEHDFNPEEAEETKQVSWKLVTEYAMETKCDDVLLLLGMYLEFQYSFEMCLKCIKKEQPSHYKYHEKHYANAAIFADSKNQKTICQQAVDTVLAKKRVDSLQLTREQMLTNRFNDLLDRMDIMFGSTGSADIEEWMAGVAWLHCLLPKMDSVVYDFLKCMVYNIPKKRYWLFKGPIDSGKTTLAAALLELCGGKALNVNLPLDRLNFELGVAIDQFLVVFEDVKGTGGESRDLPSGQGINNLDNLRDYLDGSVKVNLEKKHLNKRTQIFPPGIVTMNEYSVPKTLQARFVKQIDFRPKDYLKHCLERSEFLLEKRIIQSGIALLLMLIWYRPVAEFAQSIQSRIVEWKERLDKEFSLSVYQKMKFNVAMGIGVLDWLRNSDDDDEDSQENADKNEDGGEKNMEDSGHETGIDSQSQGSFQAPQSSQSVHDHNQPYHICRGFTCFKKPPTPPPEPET

Nonstructural protein 1 = Nonstructural protein 1 (Influenza A virus, UniProt Q194T2); type: functional, Influenza A virus (A/California/07/2009(H1N1))
Chain of Nonstructural protein 1 (Q194T2 whole entry): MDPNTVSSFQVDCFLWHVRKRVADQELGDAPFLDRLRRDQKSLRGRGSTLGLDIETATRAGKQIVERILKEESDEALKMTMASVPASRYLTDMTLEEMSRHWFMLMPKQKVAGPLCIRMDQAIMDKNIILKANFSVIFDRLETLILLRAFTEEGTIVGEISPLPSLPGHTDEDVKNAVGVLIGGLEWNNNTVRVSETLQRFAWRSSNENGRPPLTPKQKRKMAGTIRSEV

[3] = target: DNA dC->dU-editing enzyme APOBEC-3A (Homo sapiens, UniProt P31941); assay: Dose Response confirmation of small molecule APOBEC3A DNA Deaminase Inhibitors via a fluorescence-based single-stranded DNA deaminase assay. [Related pubchem assays (depositor defined):AID493011, AID493024]; type: functional
Chain of DNA dC->dU-editing enzyme APOBEC-3A (P31941 whole entry): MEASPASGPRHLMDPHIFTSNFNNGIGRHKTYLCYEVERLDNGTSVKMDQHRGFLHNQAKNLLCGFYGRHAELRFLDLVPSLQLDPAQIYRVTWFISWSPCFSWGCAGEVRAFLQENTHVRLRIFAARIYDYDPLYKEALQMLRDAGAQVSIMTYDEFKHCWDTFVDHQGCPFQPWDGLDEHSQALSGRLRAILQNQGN

[4] = target: DNA dC->dU-editing enzyme APOBEC-3G (Homo sapiens, UniProt Q9HC16); type: functional;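 further: Dose-response counterscreen measuring inhibition of APOBEC3G DNA deaminase activity, run while confirming APOBEC3A inhibitors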
Chain of DNA dC->dU-editing enzyme APOBEC-3G (Q9HC16 whole entry): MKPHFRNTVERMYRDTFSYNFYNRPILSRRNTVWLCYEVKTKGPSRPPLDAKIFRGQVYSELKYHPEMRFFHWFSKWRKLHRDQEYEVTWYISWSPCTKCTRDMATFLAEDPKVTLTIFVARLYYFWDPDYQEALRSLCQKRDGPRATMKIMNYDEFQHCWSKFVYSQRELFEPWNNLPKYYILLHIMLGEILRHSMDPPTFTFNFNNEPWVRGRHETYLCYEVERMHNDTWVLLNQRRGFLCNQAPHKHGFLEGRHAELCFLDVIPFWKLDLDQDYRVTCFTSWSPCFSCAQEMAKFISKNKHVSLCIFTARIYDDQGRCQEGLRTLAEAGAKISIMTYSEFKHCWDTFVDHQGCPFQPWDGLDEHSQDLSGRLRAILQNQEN

[5] = target: T1, Heat shock factor protein 1 (Mus musculus, UniProt P38532); assay: HSF1 potentiators in luciferase reporter cells, confirmation, cell-based, NIH3T3, luminescence, dose retest (AID 435004); type: functional;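 further: stress induced by proteasome inhibitor MG132 added 30 min after compound; luciferase reporter driven by HSF1 response element in NIH3T3 cells; actives raise luminescence as potentiators of the MG132 stress response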
T1 sequence (P38532 whole entry): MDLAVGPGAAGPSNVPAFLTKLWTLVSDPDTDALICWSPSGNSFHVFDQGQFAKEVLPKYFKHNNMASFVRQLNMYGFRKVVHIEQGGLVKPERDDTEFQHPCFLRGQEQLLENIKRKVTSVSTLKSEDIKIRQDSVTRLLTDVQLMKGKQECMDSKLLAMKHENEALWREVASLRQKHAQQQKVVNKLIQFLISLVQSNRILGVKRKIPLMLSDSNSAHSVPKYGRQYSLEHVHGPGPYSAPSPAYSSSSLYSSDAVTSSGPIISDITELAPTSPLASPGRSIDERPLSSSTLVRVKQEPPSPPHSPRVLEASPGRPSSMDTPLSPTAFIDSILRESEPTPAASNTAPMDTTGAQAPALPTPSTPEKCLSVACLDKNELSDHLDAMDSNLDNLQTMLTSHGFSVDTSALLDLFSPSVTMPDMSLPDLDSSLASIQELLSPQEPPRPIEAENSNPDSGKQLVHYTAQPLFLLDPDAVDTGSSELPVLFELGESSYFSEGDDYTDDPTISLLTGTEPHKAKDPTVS

[6] = THP-1 cell cytotoxicity, dose response, cytotoxicity control for non-replicating M. tuberculosis project (AID 489025); type: functional
cells [7] = type: functional, cell-based
cells [8] = type: functional, cell-based; remark: listed apart in the source
Cytochrome P450 2C19 = Cytochrome P450 2C19 (Homo sapiens, UniProt P33261); assay: Cytochrome panel assay with activity outcomes. Panel member name: p450-cyp2c19 Compounds with AC50 equal or less than 10 uM are considered active; type: functional; settings: read-out: AC50
Chain of Cytochrome P450 2C19 (P33261 whole entry, the tested form may be a part): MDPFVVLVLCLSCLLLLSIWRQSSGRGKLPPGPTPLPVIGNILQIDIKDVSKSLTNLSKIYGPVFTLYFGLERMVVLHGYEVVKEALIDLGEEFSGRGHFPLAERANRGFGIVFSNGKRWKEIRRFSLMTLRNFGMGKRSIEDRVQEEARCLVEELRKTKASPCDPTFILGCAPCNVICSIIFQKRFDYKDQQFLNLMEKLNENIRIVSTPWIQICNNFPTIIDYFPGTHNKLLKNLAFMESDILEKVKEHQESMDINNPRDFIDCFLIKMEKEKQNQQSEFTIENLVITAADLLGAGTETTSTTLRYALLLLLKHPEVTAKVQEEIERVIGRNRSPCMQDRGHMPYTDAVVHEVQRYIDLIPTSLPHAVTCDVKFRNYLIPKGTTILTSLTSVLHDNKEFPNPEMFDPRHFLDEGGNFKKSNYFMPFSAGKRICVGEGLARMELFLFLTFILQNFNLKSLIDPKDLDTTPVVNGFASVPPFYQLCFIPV

[9] = target: T2, RNA-binding protein pos-1 (Caenorhabditis elegans, UniProt G5EF15); assay: inhibitors of POS-1/mex-3 RNA binding, dose response, biochemical, fluorescence polarization (AID 1964);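 further: purified POS-1 fused to maltose binding protein made in E. coli; potency of compounds blocking POS-1 binding to fluorescent RNA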
T2 sequence (G5EF15 whole entry): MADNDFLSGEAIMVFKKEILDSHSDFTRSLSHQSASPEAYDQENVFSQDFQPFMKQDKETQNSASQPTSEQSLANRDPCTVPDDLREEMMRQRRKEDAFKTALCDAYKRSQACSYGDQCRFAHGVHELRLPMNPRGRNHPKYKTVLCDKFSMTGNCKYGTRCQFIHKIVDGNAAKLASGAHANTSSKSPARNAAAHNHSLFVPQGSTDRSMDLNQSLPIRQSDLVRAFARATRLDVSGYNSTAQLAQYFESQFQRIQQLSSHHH

[10] = target: T3, Zinc finger protein mex-5 (Caenorhabditis elegans, UniProt Q9XUB2); assay: MEX-5/TCR-2 RNA interaction inhibitors, dose response, biochemical, C. elegans, fluorescence polarization (AID 1960)
T3 sequence (Q9XUB2 whole entry): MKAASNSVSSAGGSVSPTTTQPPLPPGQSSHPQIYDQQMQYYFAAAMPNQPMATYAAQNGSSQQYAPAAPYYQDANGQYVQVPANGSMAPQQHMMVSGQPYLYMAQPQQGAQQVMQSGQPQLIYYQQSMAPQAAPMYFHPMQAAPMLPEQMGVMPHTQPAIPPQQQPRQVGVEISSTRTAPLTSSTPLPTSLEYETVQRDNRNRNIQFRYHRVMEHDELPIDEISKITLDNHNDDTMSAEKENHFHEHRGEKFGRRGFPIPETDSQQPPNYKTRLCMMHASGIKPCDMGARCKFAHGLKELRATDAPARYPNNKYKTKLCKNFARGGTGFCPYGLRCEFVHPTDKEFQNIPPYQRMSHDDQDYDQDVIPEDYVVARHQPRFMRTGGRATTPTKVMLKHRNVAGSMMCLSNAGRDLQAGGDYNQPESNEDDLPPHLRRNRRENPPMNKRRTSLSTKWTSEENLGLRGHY

[11] = Luminescence Cell-Based Dose Response HTS to Identify Inhibitors of 5'UTR Stem-Loop Driven Prion Protein mRNA Translation in H4 Neuroglioblastoma Cells. [Related pubchem assays: 1827 (Project Summary), 1813 (Primary HTS)]; type: functional
[12] = inhibitors of firefly luciferase expression or activity, dose response, H4 neuroglioma cells, luminescence (AID 1990); type: functional, cell-based
[13] = inhibitors of SNCA 5'UTR-driven reporter translation, confirmation, H4 neuroglioma cells, luminescence (AID 1988); type: functional, cell-based
Streptokinase A = target: T4, Streptokinase A (Streptococcus pyogenes serotype M1, UniProt P10520); assay: S. pyogenes streptokinase expression inhibitors, potency, dose response, plasminogen activation absorbance, OD405 (AID 1914); type: functional, Streptococcus pyogenes M1 GAS;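 further: secreted streptokinase activity via plasminogen activation per viability signal from cell pellet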
T4 sequence (P10520 whole entry): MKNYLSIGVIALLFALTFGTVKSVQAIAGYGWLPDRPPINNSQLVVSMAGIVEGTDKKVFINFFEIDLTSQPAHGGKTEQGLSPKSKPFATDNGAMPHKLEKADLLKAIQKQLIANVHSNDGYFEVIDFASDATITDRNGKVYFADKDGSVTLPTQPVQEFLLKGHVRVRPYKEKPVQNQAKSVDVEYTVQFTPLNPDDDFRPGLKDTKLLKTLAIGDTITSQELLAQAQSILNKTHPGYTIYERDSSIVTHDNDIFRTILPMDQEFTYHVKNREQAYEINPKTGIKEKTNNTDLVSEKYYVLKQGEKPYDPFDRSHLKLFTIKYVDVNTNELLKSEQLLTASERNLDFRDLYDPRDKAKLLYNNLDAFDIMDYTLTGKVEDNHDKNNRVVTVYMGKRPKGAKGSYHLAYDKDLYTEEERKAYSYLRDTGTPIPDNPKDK

Streptococcus = assay: Group A Streptococcus viability loss, dose response, counter-screen for streptokinase expression inhibitor project, luminescence, BacTiterGlo (AID 1915); type: functional, organism-based;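 further: potency for reduction of bacterial viability or growth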
[14] = NIH-3T3 fibroblast cytotoxicity, dose response, cytotoxicity control, cell-based, fluorescence, Alamar Blue, secondary assay (AID 2327); type: functional;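 further: NIH-3T3 mouse fibroblasts cultured with fluconazole at 8 µg/mL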
[15] = inhibitors of intracellular T. cruzi replication, confirmation, NIH3T3 host cells, beta-gal luminescence (AID 2044); type: functional, cell-based;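 further: intracellular parasites grown in NIH/3T3 mouse fibroblasts as host cells; luminescent beta-galactosidase reporter signal from transgenic T. cruzi replicating inside host cells; inhibitors lower the luminescence signal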
[16] = test system: Streptococcus sp. 'group A'; assay: growth inhibition of control SK(-) GAS strain, dose response, counter-screen for streptokinase expression inhibitor project, luminescence, kanamycin, BacTiterGlo, confirmation (AID 1900); type: functional, organism-based
[17] = cytotoxicity toward NIH3T3 fibroblasts, dose response, counter-screen, cell-based, ATP luminescence, mouse fibroblasts (AID 2010); type: functional;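 further: cells exposed to compound for about 90 hours before reading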
INS1 = assay: beta cell apoptosis inhibitors, cytokine rescue, dose response, luminescence, retest (AID 449756); type: functional, cell-based; settings: Rattus norvegicus;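 further: cell death triggered by IL-1 beta plus TNF-alpha plus IFN-gamma mixture; protective hits raise ATP signal compared with cytokine alone wells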
[18] = C. albicans growth with fluconazole, confirmation, fluorescence, retest (AID 2467); type: functional, cell-based
[19] = control 3'UTR Renilla luciferase suppression, dose response, counter-screen for Shn3 inhibitor project, cell-based, Clone20-Shn3RL, cherry-picked (AID 624133); type: functional

CN1C(=O)C(=CNNc2ccccc2)C(=O)N(C)C1=O
AC50 [1]: 2.87 µM (active) | AC50 [2]: 0.031 µM (active)

CCOc1ccc(NCc2cccn2-c2nnc(N3CCC(C(=O)NCCCN4CC(C)CC(C)C4)CC3)s2)cc1 (stereo unspecified)
CC50 (Vero): 23.9 µM (active) | IC50 (Large T antigen): 19.3 µM (active)

COc1ccc(N2CCN(C(CNS(=O)(=O)c3ccc(C)cc3)c3ccccc3)CC2)cc1 (stereo unspecified)
IC50 (Nonstructural protein 1): > 100 µM (active)

C[n+]1cccc(C(=O)NCC2CCCO2)c1 (stereo unspecified)
IC50 [3]: 2.55 µM (active) | IC50 [4]: 4.44 µM (active)

O=C(CSC1=NCCS1)NC1CCCCC1
IC50 [3]: 3.67 µM (active) | IC50 [4]: 3.76 µM (active)

COc1ccc2cc(/C=C/C(=O)N3CCN(CC(=O)N4CCCCCC4)CC3)ccc2c1
EC50 [5]: > 260 µM (inactive)

CC(C)(C)c1ccc(NC(=O)C2=CN3CCS(=O)(=O)N=C3C=C2)cc1
IC50 [3]: 5.24 µM (active) | IC50 [4]: 8.51 µM (active)

CC(C)NS(=O)(=O)c1ccc2c(c1)NCC2
AC50 [2]: 5.77 µM (active)

COc1ccc(NC(=O)C(=O)N2N=C3CCCCC3C2(O)C(F)(F)F)cc1 (stereo unspecified)
IC50 [3]: 6.08 µM (active) | IC50 [4]: 6.97 µM (active)

Cc1ccc(S(=O)(=O)N2CC(O)C[C@H]2C(=O)OCC(=O)Nc2ccc(N3CCCCC3)cc2)cc1C (stereo partly specified)
IC50 (Nonstructural protein 1): 62.8 µM (active)

O=S(=O)(c1ccc(OCC2CO2)cc1)c1ccc(OCC2CO2)cc1 (stereo unspecified)
CC50 [6]: 32.2 µM (active)

COCc1cc(C)nc(N2CCN(Cc3ccccc3)CC2)c1C#N
IC50 [3]: 3.15 µM (active) | IC50 [4]: 3.55 µM (active)

COc1ccc(-c2c(C)nn3c(NC4CCCC4)cc(C)nc23)cc1OC
EC50 [5]: > 260 µM (inactive)

O=C1Nc2ccc(Cl)cc2/C1=C/C1CC=CCC1 (stereo unspecified)
EC50 (cells [7]): > 350 µM (not active) | EC50 (cells [8]): 61.2 µM (active)

Cn1c(Cc2ccccc2)nnc1SCCC(=O)Nc1ccccc1
IC50 [3]: 2.03 µM (active) | IC50 [4]: 4.55 µM (active)

COc1ccc(N2CCN(C(=O)CN(C)S(=O)(=O)c3cc(C)ccc3OC)CC2)cc1
EC50 (cells [7]): > 350 µM (not active) | EC50 (cells [8]): > 350 µM (not active)

Cc1nc2ccccc2n2c(-c3ccccc3)c3c(=O)n(C)c(=O)n(C)c3c12
EC50 (cells [7]): > 350 µM (not active) | EC50 (cells [8]): > 350 µM (not active)

O=C1N(c2ccccc2)CCN1c1ccccc1
EC50 [5]: > 260 µM (inconclusive)

COc1ccc(-c2nc(C#N)c(N3CCN(C(=O)c4ccco4)CC3)o2)cc1OC
EC50 (cells [7]): > 350 µM (not active) | EC50 (cells [8]): > 350 µM (not active)

CC1(c2ccccc2)CC2CC(c3ccccc3)N1O2 (stereo unspecified)
EC50 [5]: > 260 µM (inactive)

Oc1cc(O)nc(SCc2ccccc2)n1
AC50 [2]: 2.33 µM (active)

Cc1ccc(-c2nn(-c3cc(Cl)ccc3[N+](=O)[O-])c(=O)c3ccccc23)cc1
EC50 [5]: > 260 µM (inactive)

COc1cccc(-c2noc(Cn3nc(C)c([N+](=O)[O-])c3C)n2)c1
AC50 (Cytochrome P450 2C19): 1 µM (inconclusive) | AC50 [2]: 0.983 µM (active)

CN(Cc1ccccc1)C(=O)CC(=O)N(C)Cc1ccccc1
EC50 (cells [7]): > 350 µM (not active) | EC50 (cells [8]): > 350 µM (not active)

Cc1c(NC(=O)c2cc(-n3cnnc3)ccc2Cl)cccc1-c1nc2ccccc2o1
IC50 [3]: 2.56 µM (active) | IC50 [4]: 2.65 µM (active)

Cc1nc2cc(N)ccc2n1C1CCCCC1
EC50 [9]: > 300 µM (not active) | AC50 [2]: 0.277 µM (active) | EC50 [10]: 4.72 µM (inconclusive)

CC(C)c1ccc(CN(C)C(=O)c2ccc(S(=O)(=O)NCc3ccco3)cc2)cc1
CC50 (Vero): 12.7 µM (active)

Nc1nonc1-n1nnc(C(=O)N/N=C/c2ccc(OCc3ccc(F)cc3)cc2)c1COc1ccccc1
CC50 (Vero): > 25 µM (active)

O=C(N/N=C\c1c(O)ccc2ccccc12)c1ccc(O)cc1
EC50 (cells [7]): 10.6 µM (active) | EC50 [11]: 8.71 µM (active) | EC50 [12]: 10 µM (active) | EC50 (cells [8]): > 350 µM (not active) | EC50 [13]: 5.97 µM (active)

CCN(CC)c1ccc(/C=N/NC(=O)CNC(=O)C2COc3ccccc3O2)c(O)c1 (stereo unspecified)
EC50 (Streptokinase A): > 150 µM (not active) | EC50 (cells [7]): 66.6 µM (active) | EC50 (Streptococcus): > 150 µM (not active) | EC50 [14]: 5.42 µM (inconclusive) | EC50 [15]: 1.2 µM (active) | EC50 [11]: 0.646 µM (active) | EC50 [12]: 0.229 µM (active) | EC50 [16]: 8.15 µM (active) | EC50 [17]: 4.2 µM (active) | AC50 (INS1): 1.31 µM (active) | EC50 [18]: 1.51 µM (active) | EC50 (cells [8]): > 350 µM (not active) | EC50 [13]: 0.311 µM (active)

COc1cc(/C=N/N2CCCCC2)cc(OC)c1O
AC50 [2]: 0.639 µM (active)

O=C(CC(=O)N/N=C/c1ccc(O)cc1)N/N=C/c1ccc(O)cc1
AC50 [2]: 1.15 µM (active) | IC50 (Large T antigen): 13.8 µM (active)

CCC/C(=N/NC(=O)c1cccc(Cl)c1)c1ccccc1
EC50 (cells [7]): > 350 µM (not active) | EC50 (cells [8]): > 350 µM (not active)

Cn1cc(/C=N/NC(=O)c2cc3cc(Br)ccc3o2)c2ccccc21
IC50 [3]: 3.98 µM (active) | IC50 [4]: 39.3 µM (active)

CCOC(=O)CNC(=O)C1(NC(=O)CNC(=O)OCc2ccccc2)CCCC1 (Cbz-Gly-[Ac5c]-Gly-OEt)
AC50 [19]: 49.2 µM (active)
